Test system: K24384-001-R-PDC complex spheroids, viability
Experiment: Anticancer human tumor K24384-001-R-PDC patient-derived pancreatic adenocarcinoma cell line growth inhibition [GQUAD]
Conditions: for IC50: curve of first compound; for viability, T/C: stronger effect = lower value
Method in brief: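 Tumor cells were grown as complex spheroids with HUVEC endothelial cells and mesenchymal stem cells as stroma. G-quadruplex stabilizers were combined with targeted agents over half-log dilutions from near the clinical Cmax, or from 10 microM.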

[1] = second compound 0.0316 µM, first compound 0.0316 µM
[2] = second compound 0.0316 µM, first compound 0.316 µM
[3] = second compound 0.1 µM, first compound 0.0316 µM
[4] = second compound 0.1 µM, first compound 0.316 µM
[5] = second compound 0.316 µM, first compound 0.0316 µM
[6] = second compound 0.316 µM, first compound 0.316 µM
[7] = second compound 1 µM, first compound 0.0316 µM
[8] = second compound 1 µM, first compound 0.316 µM
[9] = second compound 3.16 µM, first compound 0.0316 µM
[10] = second compound 3.16 µM, first compound 0.316 µM
[11] = second compound 10 µM, first compound 0.0316 µM
[12] = second compound 10 µM, first compound 0.316 µM
[13] = second compound 0.0316 µM, first compound 0.1 µM
[14] = second compound 0.0316 µM, first compound 1 µM
[15] = second compound 0.0316 µM, first compound 3.16 µM
[16] = second compound 0.0316 µM, first compound 10 µM
[17] = second compound 0.1 µM, first compound 0.1 µM
[18] = second compound 0.1 µM, first compound 1 µM
[19] = second compound 0.1 µM, first compound 3.16 µM
[20] = second compound 0.1 µM, first compound 10 µM
[21] = second compound 0.316 µM, first compound 0.1 µM
[22] = second compound 0.316 µM, first compound 1 µM
[23] = second compound 0.316 µM, first compound 3.16 µM
[24] = second compound 0.316 µM, first compound 10 µM
[25] = second compound 1 µM, first compound 0.1 µM
[26] = second compound 1 µM, first compound 1 µM
[27] = second compound 1 µM, first compound 3.16 µM
[28] = second compound 1 µM, first compound 10 µM
[29] = second compound 3.16 µM, first compound 0.1 µM
[30] = second compound 3.16 µM, first compound 1 µM
[31] = second compound 3.16 µM, first compound 3.16 µM
[32] = second compound 3.16 µM, first compound 10 µM
[33] = second compound 10 µM, first compound 0.1 µM
[34] = second compound 10 µM, first compound 1 µM
[35] = second compound 10 µM, first compound 3.16 µM
[36] = second compound 10 µM, first compound 10 µM
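Further: spheroids exposed to compounds for seven days.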

SMILES: CC[C@@]1(O)C(=O)OCc2c1cc1n(c2=O)Cc2cc3c(CN(C)C)c(O)ccc3nc2-1 + CN(C)c1ccc(Nc2c3ccc(NC(=O)CCN4CCCC4)cc3nc3cc(NC(=O)CCN4CCCC4)ccc23)cc1
- IC50 (second compound 0.0316 µM): 89.7 nM
- IC50 (second compound 0.1 µM): 95.5 nM
- IC50 (second compound 0.316 µM): 269 nM
- IC50 (second compound 1 µM): 125 nM
- IC50 (second compound 3.16 µM): 153 nM
- IC50 (second compound 10 µM): 155 nM
- viability, T/C (second compound 0.0316 µM, first compound 0.000999 µM): 102%
- viability, T/C (second compound 0.0316 µM, first compound 0.00316 µM): 101%
- viability, T/C (second compound 0.0316 µM, first compound 0.00999 µM): 101%
- viability, T/C [1]: 77.5%
- viability, T/C (second compound 0.0316 µM, first compound 0.0999 µM): 47.8%
- viability, T/C [2]: 42.5%
- viability, T/C (second compound 0.1 µM, first compound 0.000999 µM): 99.8%
- viability, T/C (second compound 0.1 µM, first compound 0.00316 µM): 96.7%
- viability, T/C (second compound 0.1 µM, first compound 0.00999 µM): 103%
- viability, T/C [3]: 74.4%
- viability, T/C (second compound 0.1 µM, first compound 0.0999 µM): 51.8%
- viability, T/C [4]: 38.8%
- viability, T/C (second compound 0.316 µM, first compound 0.000999 µM): 96.9%
- viability, T/C (second compound 0.316 µM, first compound 0.00316 µM): 99.6%
- viability, T/C (second compound 0.316 µM, first compound 0.00999 µM): 89.1%
- viability, T/C [5]: 89.9%
- viability, T/C (second compound 0.316 µM, first compound 0.0999 µM): 55.5%
- viability, T/C [6]: 49.2%
- viability, T/C (second compound 1 µM, first compound 0.000999 µM): 99.8%
- viability, T/C (second compound 1 µM, first compound 0.00316 µM): 103%
- viability, T/C (second compound 1 µM, first compound 0.00999 µM): 96%
- viability, T/C [7]: 82.4%
- viability, T/C (second compound 1 µM, first compound 0.0999 µM): 52.4%
- viability, T/C [8]: 39.3%
- viability, T/C (second compound 3.16 µM, first compound 0.000999 µM): 102%
- viability, T/C (second compound 3.16 µM, first compound 0.00316 µM): 90.7%
- viability, T/C (second compound 3.16 µM, first compound 0.00999 µM): 88.5%
- viability, T/C [9]: 93.1%
- viability, T/C (second compound 3.16 µM, first compound 0.0999 µM): 50.8%
- viability, T/C [10]: 48.6%
- viability, T/C (second compound 10 µM, first compound 0.000999 µM): 103%
- viability, T/C (second compound 10 µM, first compound 0.00316 µM): 103%
- viability, T/C (second compound 10 µM, first compound 0.00999 µM): 105%
- viability, T/C [11]: 109%
- viability, T/C (second compound 10 µM, first compound 0.0999 µM): 57.4%
- viability, T/C [12]: 38%

SMILES: O=c1[nH]cc(F)c(=O)[nH]1 + CN(C)c1ccc(Nc2c3ccc(NC(=O)CCN4CCCC4)cc3nc3cc(NC(=O)CCN4CCCC4)ccc23)cc1
- IC50 (second compound 0.0316 µM): 2200 nM
- IC50 (second compound 0.1 µM): 1570 nM
- IC50 (second compound 0.316 µM): 1650 nM
- IC50 (second compound 1 µM): 1260 nM
- IC50 (second compound 3.16 µM): 1360 nM
- IC50 (second compound 10 µM): 1750 nM
- viability, T/C [1]: 111%
- viability, T/C [13]: 71.7%
- viability, T/C [2]: 88.4%
- viability, T/C [14]: 52.4%
- viability, T/C [15]: 42.5%
- viability, T/C [16]: 40.3%
- viability, T/C [3]: 98.7%
- viability, T/C [17]: 100%
- viability, T/C [4]: 66.5%
- viability, T/C [18]: 59.2%
- viability, T/C [19]: 42.7%
- viability, T/C [20]: 33.3%
- viability, T/C [5]: 94.8%
- viability, T/C [21]: 94.8%
- viability, T/C [6]: 72.6%
- viability, T/C [22]: 59.1%
- viability, T/C [23]: 40.4%
- viability, T/C [24]: 32.5%
- viability, T/C [7]: 90.2%
- viability, T/C [25]: 88.8%
- viability, T/C [8]: 72.4%
- viability, T/C [26]: 57.5%
- viability, T/C [27]: 31.3%
- viability, T/C [28]: 32.1%
- viability, T/C [9]: 83.9%
- viability, T/C [29]: 89.5%
- viability, T/C [10]: 65.9%
- viability, T/C [30]: 57.3%
- viability, T/C [31]: 37.6%
- viability, T/C [32]: 31.5%
- viability, T/C [11]: 83.4%
- viability, T/C [33]: 85.2%
- viability, T/C [12]: 62.2%
- viability, T/C [34]: 69%
- viability, T/C [35]: 34.1%
- viability, T/C [36]: 31.7%

SMILES: Cc1cccc(N(C)C(=O)C2C(O)CCN2c2nc(C)cc(C(F)(F)F)c2C#N)c1 (stereo not drawn) + Cc1[nH]c2ccc(F)cc2c1-c1nc2c3cccnc3c3ncccc3c2[nH]1
- IC50 (second compound 0.0316 µM): > 10000 nM
- IC50 (second compound 0.1 µM): > 10000 nM
- IC50 (second compound 0.316 µM): > 10000 nM
- IC50 (second compound 1 µM): > 10000 nM
- IC50 (second compound 3.16 µM): > 10000 nM
- IC50 (second compound 10 µM): > 10000 nM
- viability, T/C [1]: 98.2%
- viability, T/C [13]: 90.9%
- viability, T/C [2]: 105%
- viability, T/C [14]: 95.2%
- viability, T/C [15]: 116%
- viability, T/C [16]: 117%
- viability, T/C [3]: 95.3%
- viability, T/C [17]: 102%
- viability, T/C [4]: 103%
- viability, T/C [18]: 100%
- viability, T/C [19]: 131%
- viability, T/C [20]: 118%
- viability, T/C [5]: 81.5%
- viability, T/C [21]: 103%
- viability, T/C [6]: 107%
- viability, T/C [22]: 104%
- viability, T/C [23]: 105%
- viability, T/C [24]: 128%
- viability, T/C [7]: 85.4%
- viability, T/C [25]: 91.2%
- viability, T/C [8]: 87.9%
- viability, T/C [26]: 99%
- viability, T/C [27]: 114%
- viability, T/C [28]: 93.4%
- viability, T/C [9]: 83.1%
- viability, T/C [29]: 75%
- viability, T/C [10]: 77.4%
- viability, T/C [30]: 85%
- viability, T/C [31]: 83.7%
- viability, T/C [32]: 71.8%
- viability, T/C [11]: 74.4%
- viability, T/C [33]: 85.5%
- viability, T/C [12]: 74.4%
- viability, T/C [34]: 85.6%
- viability, T/C [35]: 67.9%
- viability, T/C [36]: 75.5%

SMILES: C=CC(=O)N1CCN(c2nc(=O)n(-c3c(C)ccnc3C(C)C)c3nc(-c4c(O)cccc4F)c(F)cc23)C(C)C1 (stereo not drawn) + Cc1[nH]c2ccc(F)cc2c1-c1nc2c3cccnc3c3ncccc3c2[nH]1
- IC50 (second compound 0.0316 µM): > 10000 nM
- IC50 (second compound 0.1 µM): > 10000 nM
- IC50 (second compound 0.316 µM): > 10000 nM
- IC50 (second compound 1 µM): > 10000 nM
- IC50 (second compound 3.16 µM): > 10000 nM
- IC50 (second compound 10 µM): > 10000 nM
- viability, T/C [1]: 111%
- viability, T/C [13]: 78.9%
- viability, T/C [2]: 104%
- viability, T/C [14]: 101%
- viability, T/C [15]: 111%
- viability, T/C [16]: 88.3%
- viability, T/C [3]: 96%
- viability, T/C [17]: 96.8%
- viability, T/C [4]: 95%
- viability, T/C [18]: 117%
- viability, T/C [19]: 106%
- viability, T/C [20]: 77.4%
- viability, T/C [5]: 110%
- viability, T/C [21]: 92.8%
- viability, T/C [6]: 95.2%
- viability, T/C [22]: 119%
- viability, T/C [23]: 101%
- viability, T/C [24]: 83.3%
- viability, T/C [7]: 92.8%
- viability, T/C [25]: 105%
- viability, T/C [8]: 99.5%
- viability, T/C [26]: 103%
- viability, T/C [27]: 96.2%
- viability, T/C [28]: 70.1%
- viability, T/C [9]: 71.7%
- viability, T/C [29]: 74.8%
- viability, T/C [10]: 71.2%
- viability, T/C [30]: 84.4%
- viability, T/C [31]: 79.2%
- viability, T/C [32]: 67.1%
- viability, T/C [11]: 66%
- viability, T/C [33]: 63.7%
- viability, T/C [12]: 65.7%
- viability, T/C [34]: 72.3%
- viability, T/C [35]: 80.5%
- viability, T/C [36]: 60.8%

From PubChem BioAssay AID2060483 (Molecular Pharmacology Branch, DTP, NCI, 2025)
